Molecules are shown by their SMILES. Bounds are passed on as bounds.

One data set concerns Sprague-Dawley male rats. The data set can be described thus: Thermal hyperalgesia (carrageenan, paw withdrawal latency). Format: in vivo. The following applies: rat, 30 mg/kg, two hours after administration. The protocol:
Sprague-Dawley male rats obtained from Charles River, San Diego, Calif. were purchased at 150-175 g, and held for at least one week before testing. Pain was induced by injecting 100 μl of 2% carrageenan in 0.9% saline sub-Q into the right ventral hindpaw while the animals were under isofluorane anesthesia. Animals were then dosed one hour after with a concentration of 30 mg/kg of Compound 1. Two hours later, after acclimatizing in testing chambers for 20-30 minutes, animals were tested on both hindpaws for latency of paw withdrawal using a thermal testing apparatus. 2-3 trials were conducted with 10 minutes between trials. […] The figure depicts the time in seconds until animals withdraw from thermal stimulation at baseline and two hours after administration of delivery vehicle, control compound, and the dose of 30 mg/kg of Compound 1.
In general terms: The carrageenan paw model is a standard test of acute inflammation.

Data set [1] is described as follows: Plasma protein binding by equilibrium dialysis, rat plasma. Format: in vitro ADME. The following applies: pH 7.4, 37° C., read-out: plasma protein binding (% Bound). The protocol:
(§1) Membranes from Harvard/Amika with a molecular weight cutoff of 5,000 were rinsed with dH2O then placed in pH 7.4 PBS supplied by Gibco. The membranes were allowed to soak for 1 hour. A stock of the test article was pooled with Warfarin, Atropine at 2 mM in DMSO. The test article was then dosed into human plasma in sodium citrate, Rat Plasma, and Mouse Plasma to a final 10 μM concentration (0.5% DMSO v/v).
(§2) The pre-soaked membranes were then placed into dialysis chambers. 500 μL of PBS was added to one side of the chamber, and 500 μL of the Matrix containing the test article was added to the other side of the chamber. The chambers were then placed into an enclosed, heated rocker, which was pre-warmed to 37° C. and allowed to reach equilibrium for at least 22 hours. After 22 hours both sides were sampled. 100 μL of the donor side was added to 500 μL of PBS. 100 μL of the PBS side was added to 20 μL of fresh matrix. Samples then were crashed with 1:1 Acetonitrile and centrifuged at 10,000 RPM for 10 minutes. […]
(§3) Standards were prepared in a 1:5 plasma:PBS mixture at 5, 1.5, 0.5, 0.15, 0.05, 0.015 and 0.005 μM concentrations. […] Protein binding values were calculated as follows: % Bound=[(Concentration in Donor−Concentration in Receiver)/(Concentration in Donor)]×100. % Recovery=[(Concentration in donor+Concentration in Receiver)]/(Concentration in Normal Initial)]×100
In general terms: In equilibrium dialysis only unbound substance equilibrates across the membrane.

A short description of data set [2]: Plasma protein binding by equilibrium dialysis, human plasma. The settings on record: pH 7.4, 37° C., read-out: plasma protein binding (% Bound). Format: in vitro ADME. On the procedure:
as §1, §2, §3

Regarding `FC(F)(F)c1ccc(Nc2ncnc3c2CCN(c2ncccc2Cl)C3)cc1` [Compound 1], in the data set on Sprague-Dawley male rats, the “latency of paw withdrawal (reversal of thermal hyperalgesia)” value was “significantly increased latency of paw withdrawal”. The fraction unbound at 22 h, 10 μM in data set [1] and in data set [2] was under 0.001 throughout.

These data come from patent US7312330B2, “Bicycloheteroarylamine compounds as ion channel ligands and uses thereof” (Renovis, Inc., priority 2003, dated 2007).
